System: HepG2 cells
Test: LD50 in HepG2 cells
Assay type: cell-based, Human

CC1(C)CC[C@]2(C(=O)O)CC[C@]3(C)[C@H](C(=O)C=C4[C@@]5(C)C=C(C#N)C(=O)C(C)(C)[C@@H]5CC[C@]43C)[C@@H]2C1 [bardoxolone]
LD50 in HepG2 cells: < 1 µM
